The values below come from US8653049B2, “Normuramyl glycopeptide compounds” (priority 2008, dated 2014).

Data set [1] relates to myelin basic protein induced EAE. In words: Experimental allergic encephalomyelitis (EAE), Th1 adjuvant activity. The data set is classed as in vivo, guinea pigs. The following applies: guinea pigs sensitized with bovine MBP in IFA + compound; FIG. 31.
The conditions of data set [2]: rabbits, liposomal preparations s.c. 100 nmol/kg, 3 rabbits per group; passes if below 1.1° C. On the procedure:
The test was conducted in an authorised laboratory, ITEST plus s.r.o., Bilé Vchýnice 10, 533 13 Vápno u Prelouce, Czech Republic, according to guide-lines CL 2005.
Rabbits (New Zeeland albino, 4-6 kg, 3 animals per group) were used for testing.
Liposomal preparations of muramyl glycopeptide derivatives were administered s.c. (100 nmol/kg). Empty liposomes were used as negative control and the liposomal as well as the free form of muramyl dipeptide (MDP) (25 μg/kg, corresponding to 50.7 nmol/kg) served as positive control. Temperature was measured in 1, 2, 3, 4,6 and 24 hour intervals.
Empty liposomes were used as negative control; and liposomal as well as free muramyl dipeptide (MDP) (50.7 nmol/kg) served as positive control. B30-norAbu-MDP (MT01, structure on page 5) served as additional control. Temperature was measured in 1, 2, 3, 4, 6 and 24 h intervals. The preparation passed the test if the Sum of ΔTmax remained below 1.1° C. (3 rabbits per group)

Data set [3] concerns NK-sensitive YAC1 target cells. Briefly: NK cell-mediated cytotoxicity of spleen mononuclear cells, 51Cr-release against YAC1. The settings on record: FLV-inoculated mice, day 16, 18 h incubation with YAC1; FIG. 26.
Data set [4] relates to r-hsp90 (Candida albicans hsp90) specific IgG antibodies. Briefly: Proteoliposome vaccine against C. albicans hsp90: antibody (humoral) response, ELISA. The data set is classed as in vivo, BALB/c mice. The settings on record: Experiment 12.2; liposomal compound (5%) + Ni-HSP90, boost day 14; FIG. 13. The procedure: (§1) Proteoliposomes were prepared by coupling recombinant hsp90 antigen (r-hsp90, 6×HISTag) via a metal chelating lipid to liposomes containing muramyl glycopeptide derivatives as adjuvant component. BALB/c […] mice 4 to 5 weeks old (female 20±2 g, 5 animal per group) were immunized by the intradermal route either with 20 μg of free or liposomal r-hsp90 (volume of 60 μl) either with or without L18-norAbu-MDP and boosted 21 days later by the same composition of experimental vaccine. FCA was used as positive control r-hsp90. Liposomal vaccine composition 20 μg of rHSP90 antigen, 5% metallochelating lipid, 5% particular MT analogue, 90% phospolipids.
Blood samples were collected from the tail vein into heparinised capillary PCV tubes. After centrifugation, the upper part of the tube, containing […] blood serum, was cut off, thrown into […] diluting solution and thoroughly shaken. Thus, a basic dilution of 1:33 was obtained. The pre-diluted sera were kept at −20° C. Blood samples were collected before the first immunization, 2 weeks thereafter and subsequently at weekly intervals up to the 4th week after the second immunisation. Specific IgG antibodies in blood serum samples were determined by the standard indirect ELISA procedure. The data obtained were processed statistically using the non-parametric Mann-Whitney U-test.
Proteoliposomes with muramyl glycopeptide derivatives were prepared as described above, but the boost was carried out already after 14 days. The liposomal vaccine composition was as for Experiment Set 1: 20 μg of rHSP90 antigen, 5% metallochelating lipid, 5% particular MT analogue, 90% phospolipids.
Controls: Aluminum hydroxide (AlOH) and Freund complete adjuvans (FCA) were used as positive controls. PBS with empty liposomes was used as negative control (control). Humoral response was tested at day 14 after vaccination (post priming) and at day 20 after vaccination (post booster). Antibody titres were wer assayed by ELISA.

In data set [5] the test system is Friend leukemia virus (FLV). In words: Friend leukemia virus infection: survival, TER-119+ cells, spleen.
Data set [6] relates to IFN-γ production in splenocytes stimulated by rHSP90. Briefly: Proteoliposome vaccine against C. albicans hsp90: cellular response (IFN-γ in splenocytes stimulated by rHSP90). The following applies: Experiment 12.3; liposomal compound (5%) + Ni-HSP90, day 20; FIG. 14. Type of data set: in vivo, BALB/c mice. The procedure: as §1
Production of INF-γ was mesured by standard ELISPOT assay (R&D, USA). Immunised mice were sacrified 4 weeks after booster imunisation and splenocytes were isolated, and stimulated by r-hsp90 (50 μg/ml) and spots were counted.
Proteoliposomes with muramyl glycopeptide derivatives were prepared as described above. Experimental conditions were as for Experiment 12.2.
Cell mediated immune response against rHSP90 antigen formulated in liposomal experimental vaccine was tested at day 20 (6 days after booster). Mice were sacrificed, splenocytes were purified and production of IFN-γ in splenocytes stimulated by rHSP90 was assayed by flow cytometry.

For data set [7], the system named is NK sensitive K562 cell line. Briefly: NK cell cytotoxicity of human PBMC, 51Cr-release against K562. The data set is classed as cell-based. The settings on record: for dose response of NK cell activity: range 0.1 μM-100 μM, FIG. 28. On the procedure: Ex vivo effects of test compounds on NK cells were evaluated on human peripheral blood mononuclear cells (PBMC). The NK cell cytotoxicity of healthy donors in the presence or absence of test compounds was measured in standard 4 hrs ^51Cr-release assay against NK sensitive K562 cell line in effector (PBMC) to target (K562) ratio 16:1. Test compounds were added at a concentration of 10^−7 mol/ml.
Testing of compounds 23, 24, 32, 33, 40 and 41 for their capacity to induce cell-mediated cytotoxicity of human eripheral blood mononuclear cells (PBMCs) is shown in FIGS. 27 and 28. All donors were healthy. […] The cytotoxicity of untreated controls (30.5%) was renormalized to 100%.

The test system of data set [8] is Salmonella enteritidis. In words: Stimulation of innate immunity against Salmonella Enteritidis. The following applies: for protective effect / survival rate in S. Enteritidis infection: 0 or 1 case of death by day 12; for Day 6 Intest.: clear/infected/dead / Day 6 Liver: clear/infected/dead / Day 6 Lungs: clear/infected/dead / Day 6 Spleen: clear/infected/dead / Day 12 Intest.: clear/infected/dead / Day 12 Liver: clear/infected/dead / Day 12 Lungs: clear/infected/dead / Day 12 Spleen: clear/infected/dead: liposomal, 20 nmol per dose p.o. 72 and 24 h before infection (LD50), 5 mice.

Data set [9] can be described thus: Survival after lethal irradiation (10 Gy). The data set is classed as in vivo, mice (strain ICR). The following applies: 200 nmol s.c. 24 h before 10 Gy; FIG. 37. The procedure: Preparations (200 nmol of active substance) were applied to mice (strain ICR, female, 3 months of age, 10 mice per group) by s.c. route 24 h before irradiation (radiation dose of 10 Gy from a ^60Co gamma-ray source at a dose rate of 0.285 Gy/min). PBS and empty liposome served as negative controls, free and liposomal muramyl dipeptide (MDP) served as positive controls.

The subject of data set [10] is granulocyte-macrophage progenitor cells (GM-CFC). In words: Colony stimulating activity (CSA) of serum on GM-CFC. The following applies: liposomal compounds; FIG. 32. Type of data set: in vivo, mouse. On the procedure:
Determination of Colony stimulating activity (CSA) and co-stimulating activity (CoSA) in serum: Blood was taken at intervals from 5 to 48 h after injection of the test compounds, and the ability of the sera from treated mice to stimulate in vitro growth of colonies from granulocyte-macrophage progenitor cells (GM-CFC) was determined. CoSA was determined as the ability of tested compounds, sera of treated mice, or conditioned medium from cultures of adherent stromal cells to enhance the number of GM-CFC colonies induced by a sub-optimal concentration of rmIL-3 in the above-described GM-CFC assay. The concentration of rmIL-3 was adjusted to a value which yielded one third of the maximum number of colonies on a dose-dependent curve.

The test system of data set [11] is GM-CFC progenitors in bone marrow. Briefly: GM-CFC recovery, test compounds after sub-lethal irradiation. The data set is classed as in vivo, ICR/CD-1 mice. The following applies: s.c. 100 nmol 24 h after 6 Gy; FIG. 36. On the procedure: Institite of Cancer Research (ICR/CD-1) mice (female, age of 3 months, 3-4 per group) were stimulated by s.c. administration of test compounds (volume of 200 μl, 100 nmol per dose) 24 h before sublethal γ-irradiation (6 Gy, ^60Co γray source Chisostat, Chirana Ltd., Czech Republic, at a dose of 0.285 Gy/min.). Mice were sacrified at day 13 and recovery of GM-CFC in femour was assayed by counting of colonies (CFC) formed after cultivation in medium. Non-irradiated mice were used as control for normal GM-CFC count in femour. PBS and empty liposomes were used as controls for spontaneous recovery. Liposomal MDP was used as reference standard.
The following parameters of hemopoiesis were evaluated: • a) Blood leukocyte counts and bone marrow cellularity. Blood leukocytes (samples of blood drawn from an incision of the tail vein) and nucleated cell elements of the femoral bone marrow (femoral diaphyses flushed with saline) were estimated by means of Coulter Counter (Model ZN, Coulter Electronics). • b) Colony-forming cells in spleen. Endogenous spleen colony-forming units (E-CFUs) were measured on day 9 post the whole-body irradiation with 6.5 Gy (5 mice per group) according to Till and McCulloch. • c) GM-CFC progenitors in bone marrow. Femoral bone marrow cells were obtained from mice by flushing the femour with sterile IMDM medium. Harvested cells were calculated and diluted to 1.5×10^5 cells/ml and plated in triplicate in a semisolid environment created by plasma clot (Iscovess modification of Dulbecco's medium, 20% of fetal calf serum, 10% of colony-stimulating factor, 10% of citrate plasma, and CaCl2 1.5 mg/ml). The cultures were incubated for 7 days at 37° C. in 5% CO2. Colonies of at least 50 cells were scored at 40× magnification.
The method is exactly as described above except that the test compounds (volume of 200 μl, 100 nmol per dose) were administered 24 h after sublethal γ-irradiation (6 Gy).

Molecules are shown by their SMILES. Entries after “also recorded” stand apart in the source; their conditions may differ.

In the case of `CCCCCCCCCCCCCCC(CCCCCCCCCCCCCC)C(=O)N[C@H]1[C@H](O[C@H]2[C@H](OCC(=O)N[C@@H](CC)C(=O)N[C@H](CCC(=O)O)C(N)=O)[C@@H](NC(C)=O)C(O)O[C@@H]2CO)O[C@H](CO)[C@@H](O)[C@@H]1O` (stereo partly drawn) [Compound 24, N-{2-O-[2-deoxy-2-(2-tetradecyl-hexadecanoylamino)-β-D-gluco-pyranosyl-(1→4)-2-acetamido-2,3-dideoxy-α-D-glucopyranosid-3-yl]glycoloyl}-L-α-aminobutanoyl-D-isoglutamine], the “Th1 stimulation (EAE)” value in data set [1] was “strongest effect on Th1 stimulation”. The “+ΔTmax (Sum of ΔTmax)” value in data set [2] stood at 0.7 °C. Further, the “NK cell activity (cell-mediated cytotoxicity of SMCs)” value in data set [3] was “inhibitory effect”. The “antibody response to r-hsp90 proteoliposomes” value in data set [4] is listed as “weak to non-existent antibody responses; also recorded: virtually no Th2-type response”. Moreover, the “survival, late phase (days 55 and 59), long-term” value in data set [5] (10 μmol i.p., non-liposomal, control 0%, FIG. 23, listed as substance 24) is reported as 30%. For the same compound, the “survival, early phase (day 43)” value in [5] (10 μmol i.p., non-liposomal, saline control 82%, FIG. 23) is reported as “survival rate worse than control”. Besides, in [5] (day 16, FIG. 24), the “clonal expansion of TER-119+ erythroleukaemia cells in spleen” value is “pronounced opposite effect”. In data set [5] (day 16, FIG. 25), the “spleen size (weight)” value was “spleen size slightly lower than the control”. Also, in data set [6], the “cell-mediated response to r-hsp90 proteoliposomes” value is recorded as “strong Th1-type responses”. In [7] (no vs 18 h pre-incubation), the “lag time to reach full NK stimulating activity” value is recorded as “most pronounced”. Also, the “dose response of NK cell activity” value in data set [7] is recorded as “negative dose response”. In addition, in data set [8], the “protective effect / survival rate in S. Enteritidis infection” value was “good protective effects”, the “Day 6 Intest.: clear/infected/dead” value is 4/1/0, the “Day 6 Liver: clear/infected/dead” value is reported as 3/2/0 and the “Day 6 Lungs: clear/infected/dead” value is listed as 4/1/0. For the same compound, in data set [8], the “Day 6 Spleen: clear/infected/dead” value is recorded as 3/2/0, the “Day 12 Intest.: clear/infected/dead” value is reported as 3/1/1, the “Day 12 Liver: clear/infected/dead” value was 3/1/1 and the “Day 12 Lungs: clear/infected/dead” value was 4/0/1. Further, the “Day 12 Spleen: clear/infected/dead” value in [8] is 3/1/1. The “survival of lethally irradiated mice” value in data set [9] was “smaller survival benefit”.
As for `CCCCCCCCCCCCCCC(CCCCCCCCCCCCCC)C(=O)NCCCC[C@H](NC(=O)CC[C@@H](NC(=O)[C@H](CC)NC(=O)CO[C@H]1[C@H](O)[C@@H](CO)OC(O)[C@@H]1NC(C)=O)C(N)=O)C(=O)O` (stereo partly drawn) [Compound 33, N-[2-O-(2-Acetamido-2,3-dideoxy-α-D-glucopyranosid-3-yl)-glycoloyl]-L-α-aminobutanoyl-D-isoglutaminyl-L-lysine(2-tetradecylhexadecanoyl)], the “+ΔTmax (Sum of ΔTmax)” value in [2] is 0.4 °C. Besides, in data set [3], the “NK cell activity (cell-mediated cytotoxicity of SMCs)” value is recorded as “partially 33, had an inhibitory effect”. Also, in data set [4], the “antibody response to r-hsp90 proteoliposomes” value was “strong and comparable to AlOH”. The “GM-CFC stimulating activity (CSA) in serum” value in [10] is “no effect”. Also, the “cell-mediated response to r-hsp90 proteoliposomes” value in data set [6] was “good results”. The “GM-CFC progenitor cells in bone marrow” value in data set [11] was “strongest performers”. Besides, the “dose response of NK cell activity” value in data set [7] was “positive dose response”. In addition, in [8], the “protective effect / survival rate in S. Enteritidis infection” value is on record as “good protective effects”, the “Day 6 Intest.: clear/infected/dead” value was 5/0/0, the “Day 6 Liver: clear/infected/dead” value is 5/0/0 and the “Day 6 Lungs: clear/infected/dead” value was 5/0/0. In addition, in data set [8], the “Day 6 Spleen: clear/infected/dead” value is given as 2/3/0, the “Day 12 Intest.: clear/infected/dead” value is 2/2/1, the “Day 12 Liver: clear/infected/dead” value was 1/3/1 and the “Day 12 Lungs: clear/infected/dead” value is recorded as 2/2/1. In [8], the “Day 12 Spleen: clear/infected/dead” value was 1/3/1.
